Measured values published in patent US12077503B2, “Substituted cyclic amides and their use as herbicides” (FMC CORPORATION, priority 2015, dated 2024).

Tests used:
Assay type in all cases: in vivo
Kochia (Kochia scoparia) [1] = assay: Test A preemergence; conditions: Bassia scoparia, pre-emergence, 240 h, 0 to 100 scale where 0 is no effect and 100 is complete control, read-out: Kochia plant response rating
Method in brief: (§1)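 Seeded soil received test chemicals as a preemergence directed spray, and seedlings at one to two leaves, 2–10 cm tall, received them postemergence, in a non-phytotoxic, surfactant-containing solvent mixture. Pots were held in a greenhouse for approximately 10 d, then rated for injury from 0, no effect, to 100, complete control.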

[2] = tested on: barnyardgrass (Echinochloa crus-galli); assay: Test A preemergence; conditions: Echinochloa crus-galli, pre-emergence, 240 h, 0 to 100 scale where 0 is no effect and 100 is complete control, read-out: Barnyardgrass plant response rating
Method in brief: as §1

[3] = tested on: giant foxtail (Setaria faberii); assay: Test A preemergence; conditions: Setaria faberi, pre-emergence, 240 h, 0 to 100 scale where 0 is no effect and 100 is complete control, read-out: Foxtail, Giant plant response rating
Method in brief: as §1

[4] = tested on: pigweed (Amaranthus retroflexus); assay: Test A preemergence; conditions: Amaranthus retroflexus, pre-emergence, 240 h, 0 to 100 scale where 0 is no effect and 100 is complete control, read-out: Pigweed plant response rating
[5] = tested on: ragweed (common ragweed, Ambrosia elatior); assay: Test A preemergence; conditions: Ambrosia artemisiifolia, pre-emergence, 240 h, 0 to 100 scale where 0 is no effect and 100 is complete control, read-out: Ragweed plant response rating
Method in brief: as §1

[6] = tested on: ryegrass, Italian (Italian ryegrass, Lolium multiflorum); assay: Test A preemergence; conditions: Lolium multiflorum, pre-emergence, 240 h, 0 to 100 scale where 0 is no effect and 100 is complete control, read-out: Ryegrass, Italian plant response rating
Method in brief: as §1

[7] = tested on: Galium (catchweed bedstraw, Galium aparine); assay: Test A postemergence; conditions: Galium, post-emergence, 240 h
Method in brief: as §1

Kochia (Kochia scoparia) [8] = assay: Test A postemergence; conditions: Bassia scoparia, post-emergence, 240 h
Method in brief: as §1

[9] = tested on: barnyardgrass (Echinochloa crus-galli); assay: Test A postemergence; conditions: Echinochloa crus-galli, post-emergence, 240 h
Method in brief: as §1

[10] = tested on: blackgrass (Alopecurus myosuroides); assay: Test A postemergence; conditions: Alopecurus myosuroides, post-emergence, 240 h
Method in brief: as §1

corn (Zea mays) = assay: Test A postemergence; conditions: Zea mays, post-emergence, 240 h
Method in brief: as §1

[11] = tested on: giant foxtail (Setaria faberii); assay: Test A postemergence; conditions: Setaria faberi, post-emergence, 240 h
Method in brief: as §1

[12] = tested on: pigweed (Amaranthus retroflexus); assay: Test A postemergence; conditions: Amaranthus retroflexus, post-emergence, 240 h
Method in brief: as §1

[13] = tested on: ragweed (common ragweed, Ambrosia elatior); assay: Test A postemergence; conditions: Ambrosia artemisiifolia, post-emergence, 240 h
Method in brief: as §1

[14] = tested on: ryegrass, Italian (Italian ryegrass, Lolium multiflorum); assay: Test A postemergence; conditions: Lolium multiflorum, post-emergence, 240 h
Method in brief: as §1

[15] = tested on: wheat (Triticum aestivum); assay: Test A postemergence; conditions: Triticum aestivum, post-emergence, 240 h
Method in brief: as §1

[16] = tested on: barnyardgrass (Echinochloa crus-galli); assay: Test B flooded paddy test; conditions: Echinochloa crus-galli, 250 g ai/ha, Flood; 0 to 100 scale where 0 is no effect and 100 is complete control; read-out: Barnyardgrass plant response rating
Method in brief: (§2)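 Evaluation by eye, against controls, occurred 13–15 d post-treatment in a greenhouse, using a 0 (no effect) to 100 (complete control) scale. Application was into the paddy water, 3 cm deep over the soil, on 2-leaf plants.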

[17] = tested on: ducksalad (Heteranthera limosa); assay: Test B flooded paddy test; conditions: Heteranthera limosa, 250 g ai/ha, Flood; 0 to 100 scale where 0 is no effect and 100 is complete control; read-out: Ducksalad plant response rating
Method in brief: as §2

rice (Oryra sativa) = assay: Test B flooded paddy test; conditions: Oryza sativa, 250 g ai/ha, Flood; 0 to 100 scale where 0 is no effect and 100 is complete control; read-out: Rice plant response rating
Method in brief: as §2

[18] = tested on: sedge, umbrella (small-flower umbrella sedge, Cyperus difformis); assay: Test B flooded paddy test; conditions: Cyperus difformis, 250 g ai/ha, Flood; 0 to 100 scale where 0 is no effect and 100 is complete control; read-out: Sedge, Umbrella plant response rating
Method in brief: as §2

[19] = 125 g ai/ha, preemergence, approx. 10 d

CN1CC(c2cccc(C(F)(F)F)c2)C(C(=O)Nc2ccccc2CO)C1=O (stereo not drawn) [Compound 1145]
pest or weed control at 31 g/ha (Kochia (Kochia scoparia) [1]; 31 g ai/ha, Preemergence): 0%
pest or weed control at 125 g/ha (Kochia (Kochia scoparia) [1]; [19]): 50%
pest or weed control at 31 g/ha ([2]; 31 g ai/ha, Preemergence): 80%
pest or weed control at 125 g/ha [2, 19]: 90%
pest or weed control at 31 g/ha ([3]; 31 g ai/ha, Preemergence): 90%
pest or weed control at 125 g/ha [3, 19]: 90%
pest or weed control at 31 g/ha ([4]; 31 g ai/ha, Preemergence): 0%
pest or weed control at 125 g/ha [4, 19]: 0%
pest or weed control at 31 g/ha ([5]; 31 g ai/ha, Preemergence): 0%
pest or weed control at 125 g/ha [5, 19]: 0%
pest or weed control at 31 g/ha ([6]; 31 g ai/ha, Preemergence): 0%
pest or weed control at 125 g/ha [6, 19]: 30%
pest or weed control at 125 g/ha ([7]; 125 g ai/ha, postemergence, visual injury on 0 to 100 scale (0 no effect, 100 complete control), approx. 10 d, read-out: Galium plant response rating): 0%
pest or weed control at 31 g/ha ([7]; Postemergence, 31 g ai/ha, visual injury after approx. 10 d, 0 to 100 scale, 0 no effect, 100 complete control, read-out: Plant response rating, Galium): 0%
pest or weed control at 125 g/ha (Kochia (Kochia scoparia) [8]; 125 g ai/ha, postemergence, visual injury on 0 to 100 scale (0 no effect, 100 complete control), approx. 10 d, read-out: Kochia plant response rating): 0%
pest or weed control at 31 g/ha (Kochia (Kochia scoparia) [8]; Postemergence, 31 g ai/ha, visual injury after approx. 10 d, 0 to 100 scale, 0 no effect, 100 complete control, read-out: Plant response rating, Kochia): 0%
pest or weed control at 125 g/ha ([9]; 125 g ai/ha, postemergence, visual injury on 0 to 100 scale (0 no effect, 100 complete control), approx. 10 d, read-out: Barnyardgrass plant response rating): 80%
pest or weed control at 31 g/ha ([9]; Postemergence, 31 g ai/ha, visual injury after approx. 10 d, 0 to 100 scale, 0 no effect, 100 complete control, read-out: Plant response rating, Barnyardgrass): 60%
pest or weed control at 125 g/ha ([10]; 125 g ai/ha, postemergence, visual injury on 0 to 100 scale (0 no effect, 100 complete control), approx. 10 d, read-out: Blackgrass plant response rating): 50%
pest or weed control at 31 g/ha ([10]; Postemergence, 31 g ai/ha, visual injury after approx. 10 d, 0 to 100 scale, 0 no effect, 100 complete control, read-out: Plant response rating, Blackgrass): 0%
plant injury at 125 g/ha (corn (Zea mays); 125 g ai/ha, postemergence, visual injury on 0 to 100 scale (0 no effect, 100 complete control), approx. 10 d, read-out: Corn plant response rating): 50%
Corn plant response rating (crop injury, 0 = no effect, 100 = complete kill) at 31 g/ha (corn (Zea mays); Postemergence, 31 g ai/ha, visual injury after approx. 10 d, 0 to 100 scale, 0 no effect, 100 complete control): 0%
pest or weed control at 125 g/ha ([11]; 125 g ai/ha, postemergence, visual injury on 0 to 100 scale (0 no effect, 100 complete control), approx. 10 d, read-out: Foxtail, Giant plant response rating): 90%
pest or weed control at 31 g/ha ([11]; Postemergence, 31 g ai/ha, visual injury after approx. 10 d, 0 to 100 scale, 0 no effect, 100 complete control, read-out: Plant response rating, Foxtail, Giant): 50%
pest or weed control at 125 g/ha ([12]; 125 g ai/ha, postemergence, visual injury vs untreated controls after approx. 10 d, 0 = no effect, 100 = complete control, read-out: Pigweed plant response rating (0 to 100 scale)): 0%
pest or weed control at 31 g/ha ([12]; Postemergence, 31 g ai/ha, visual injury after approx. 10 d, 0 to 100 scale, 0 no effect, 100 complete control, read-out: Plant response rating, Pigweed): 0%
pest or weed control at 125 g/ha ([13]; 125 g ai/ha, postemergence, visual injury vs untreated controls after approx. 10 d, 0 = no effect, 100 = complete control, read-out: Ragweed plant response rating (0 to 100 scale)): 0%
pest or weed control at 31 g/ha ([13]; Postemergence, 31 g ai/ha, visual injury after approx. 10 d, 0 to 100 scale, 0 no effect, 100 complete control, read-out: Plant response rating, Ragweed): 0%
pest or weed control at 125 g/ha ([14]; 125 g ai/ha, postemergence, visual injury vs untreated controls after approx. 10 d, 0 = no effect, 100 = complete control, read-out: Ryegrass, Italian plant response rating (0 to 100 scale)): 20%
pest or weed control at 31 g/ha ([14]; Postemergence, 31 g ai/ha, visual injury after approx. 10 d, 0 to 100 scale, 0 no effect, 100 complete control, read-out: Plant response rating, Ryegrass, Italian): 0%
plant injury at 125 g/ha ([15]; 125 g ai/ha, postemergence, visual injury vs untreated controls after approx. 10 d, 0 = no effect, 100 = complete control, read-out: Wheat plant response rating (0 to 100 scale)): 40%
plant injury at 31 g/ha ([15]; Postemergence, 31 g ai/ha, visual injury after approx. 10 d, 0 to 100 scale, 0 no effect, 100 complete control, read-out: Plant response rating, Wheat): 0%
pest or weed control at 250 g/ha [16]: 75%
pest or weed control at 250 g/ha [17]: 60%
pest or weed control at 250 g/ha (rice (Oryra sativa)): 30%
pest or weed control at 250 g/ha [18]: 40%
